Converted amounts (≈) assume the structure as drawn. Where two headings read alike, the source gives them in different places.
What was measured:
Experiment in all cases: In vitro activity, dilution method in liquid medium (MIC)
Format in all cases: cell-based
Escherichia Coli 1507 E = details: COLI1507E, read-out: concentrations minimales inhibitrices (C. M. I.)
Procedure: (§1) Etude pharmacologiaue des produits de l'invention. Activité in vitro, méthode des dilutions en milieu liquide.
(§2) On prépare une série de tubes dans lesquels on répartit une même quantité de milieu nutritif stérile. On distribue dans chaque tube des quantités croissantes du produit à étudier, puis chaque tube est ensemencé avec une souche bactérienne. Après incubation de vingt-quatre ou quarante-huit heures à l'étuve à 37°C, l'inhibition de la croissance est appréciée par transillumination ce qui permet de déterminer les concentrations minimales inhibitrices (C. M. I.) exprimées en µg/cm3.

[1] = system: Salmonella typhimurium MZ 11; details: Salmonella enterica, read-out: concentrations minimales inhibitrices (C. M. I.)
Procedure: as §1, §2

Escherichia Coli TEM = details: read-out: concentrations minimales inhibitrices (C. M. I.)
Procedure: as §1, §2

[2] = system: Klebsiella Aeruginosa 1522 E; details: read-out: concentrations minimales inhibitrices (C. M. I.)
Procedure: as §1, §2

[3] = system: Klebsiella pneumonae 52145; details: read-out: concentrations minimales inhibitrices (C. M. I.)
Procedure: as §1, §2

Escherichia Coli DC0 = details: read-out: concentrations minimales inhibitrices (C. M. I.)
Procedure: as §1, §2

Escherichia Coli 078 = details: read-out: concentrations minimales inhibitrices (C. M. I.)
Procedure: as §1, §2

Escherichia Coli DC2 = details: read-out: concentrations minimales inhibitrices (C. M. I.)
Procedure: as §1, §2

Providencia DU 48 = details: read-out: concentrations minimales inhibitrices (C. M. I.)
Procedure: as §1, §2

[4] = system: Enterobacter cloacae 1321 E; details: read-out: concentrations minimales inhibitrices (C. M. I.)
Procedure: as §1, §2

Proteus mirabilis A 235 = details: read-out: concentrations minimales inhibitrices (C. M. I.)
Procedure: as §1, §2

Proteus vulgaris A 232 = details: read-out: concentrations minimales inhibitrices (C. M. I.)
Procedure: as §1, §2

Escherichia Coli 1894 = details: read-out: concentrations minimales inhibitrices (C. M. I.)
Procedure: as §1, §2

Serratia marcesceus 2532 = details: read-out: concentrations minimales inhibitrices (C. M. I.)
Procedure: as §1, §2

[5] = system: Pseudomonas aeruginosa 1771 m; details: read-out: concentrations minimales inhibitrices (C. M. I.)
Procedure: as §1, §2

[6] = COLIDC0, 24 H incubation at 37°C
[7] = COLIDC0, 48 H incubation at 37°C
[8] = COLI078, 24 H incubation at 37°C
[9] = COLI078, 48 H incubation at 37°C
[10] = COLIDC2, 24 H incubation at 37°C
[11] = COLIDC2, 48 H incubation at 37°C
[12] = COLI1894, 24 H incubation at 37°C
[13] = COLI1894, 48 H incubation at 37°C

SMILES	MIC (Escherichia Coli 1507 E; 24 H incubation at 37°C)	MIC (Escherichia Coli 1507 E; 48 H incubation at 37°C)	MIC ([1]; 24 H incubation at 37°C)	MIC ([1]; 48 H incubation at 37°C)	MIC (Escherichia Coli TEM; 24 h)	MIC (Escherichia Coli TEM; 48 h)	MIC ([2]; 24 H incubation at 37°C)	MIC ([2]; 48 H incubation at 37°C)	MIC ([3]; 24 H incubation at 37°C)	MIC ([3]; 48 H incubation at 37°C)	MIC (Escherichia Coli DC0; [6])	MIC (Escherichia Coli DC0; [7])	MIC (Escherichia Coli 078; [8])	MIC (Escherichia Coli 078; [9])	MIC (Escherichia Coli DC2; [10])	MIC (Escherichia Coli DC2; [11])	MIC (Providencia DU 48; DU48, 24 H incubation at 37°C)	MIC (Providencia DU 48; DU48, 48 H incubation at 37°C)	MIC ([4]; 24 H incubation at 37°C)	MIC ([4]; 48 H incubation at 37°C)	other results
CO/N=C(\C(=O)N[C@@H]1C(=O)N(c2nn[nH]n2)[C@@H]1CF)c1csc(N)n1 (racemic) [Prod. ex. 11, (3SR,4SR) 3-//2-(2-aminothiazol-4-yl) 2-méthoxyimino acétyl/ amino/ 4-(fluorométhyl) 1-(1-H-tétrazol-5-yl) 2-azétidinone]	0.08 µg/mL (≈ 0.217 µM)	0.08 µg/mL (≈ 0.217 µM)	0.3 µg/mL (≈ 0.812 µM)	0.3 µg/mL (≈ 0.812 µM)	0.6 µg/mL (≈ 1.62 µM)	0.6 µg/mL (≈ 1.62 µM)	0.6 µg/mL (≈ 1.62 µM)	0.6 µg/mL (≈ 1.62 µM)	1.2 µg/mL (≈ 3.25 µM)	1.2 µg/mL (≈ 3.25 µM)	0.6 µg/mL (≈ 1.62 µM)	0.6 µg/mL (≈ 1.62 µM)	0.15 µg/mL (≈ 0.406 µM)	0.15 µg/mL (≈ 0.406 µM)	0.15 µg/mL (≈ 0.406 µM)	0.15 µg/mL (≈ 0.406 µM)	1.2 µg/mL (≈ 3.25 µM)	1.2 µg/mL (≈ 3.25 µM)	0.3 µg/mL (≈ 0.812 µM)	0.3 µg/mL (≈ 0.812 µM)	MIC (Proteus mirabilis A 235; A235, 24 H incubation at 37°C): 0.15 µg/mL (≈ 0.406 µM); MIC (Proteus mirabilis A 235; A235, 48 H incubation at 37°C): 0.15 µg/mL (≈ 0.406 µM); MIC (Proteus vulgaris A 232; A232, 24 H incubation at 37°C): 0.15 µg/mL (≈ 0.406 µM); MIC (Proteus vulgaris A 232; A232, 48 H incubation at 37°C): 0.15 µg/mL (≈ 0.406 µM); MIC (Escherichia Coli 1894; [12]): ≤ 0.04 µg/mL; MIC (Escherichia Coli 1894; [13]): ≤ 0.04 µg/mL; MIC (Serratia marcesceus 2532; 24 H incubation at 37°C): 10 µg/mL (≈ 27.1 µM); MIC (Serratia marcesceus 2532; 48 H incubation at 37°C): 10 µg/mL (≈ 27.1 µM)
CO/N=C(\C(=O)N[C@H]1CN(c2nn[nH]n2)C1=O)c1csc(N)n1 [Prod. ex.3, (3S) 3-//2-(2-aminothiazol-4-yl) 2-méthoxyimino acétyl /amino/ 1-(lH-tétrazol-5-yl) 2-azétidinone]	0.6 µg/mL (≈ 1.78 µM)	0.6 µg/mL (≈ 1.78 µM)	0.3 µg/mL (≈ 0.889 µM)	0.3 µg/mL (≈ 0.889 µM)	10 µg/mL (≈ 29.6 µM)	10 µg/mL (≈ 29.6 µM)	0.3 µg/mL (≈ 0.889 µM)	0.3 µg/mL (≈ 0.889 µM)	1.2 µg/mL (≈ 3.56 µM)	1.2 µg/mL (≈ 3.56 µM)	0.6 µg/mL (≈ 1.78 µM)	1.2 µg/mL (≈ 3.56 µM)	0.3 µg/mL (≈ 0.889 µM)	0.3 µg/mL (≈ 0.889 µM)	0.6 µg/mL (≈ 1.78 µM)	0.6 µg/mL (≈ 1.78 µM)	0.3 µg/mL (≈ 0.889 µM)	0.6 µg/mL (≈ 1.78 µM)	0.3 µg/mL (≈ 0.889 µM)	0.3 µg/mL (≈ 0.889 µM)	MIC (Proteus mirabilis A 235; A235, 24 H incubation at 37°C): 0.6 µg/mL (≈ 1.78 µM); MIC (Proteus mirabilis A 235; A235, 48 H incubation at 37°C): 0.6 µg/mL (≈ 1.78 µM); MIC (Proteus vulgaris A 232; A232, 24 H incubation at 37°C): 0.3 µg/mL (≈ 0.889 µM); MIC (Proteus vulgaris A 232; A232, 48 H incubation at 37°C): 0.3 µg/mL (≈ 0.889 µM); MIC ([5]; 24 H incubation at 37°C): 5 µg/mL (≈ 14.8 µM); MIC ([5]; 48 H incubation at 37°C): 10 µg/mL (≈ 29.6 µM); MIC (Escherichia Coli 1894; [12]): 0.15 µg/mL (≈ 0.445 µM); MIC (Escherichia Coli 1894; [13]): 0.15 µg/mL (≈ 0.445 µM); MIC (Serratia marcesceus 2532; 24 H incubation at 37°C): 2.5 µg/mL (≈ 7.41 µM); MIC (Serratia marcesceus 2532; 48 H incubation at 37°C): 5 µg/mL (≈ 14.8 µM)

From patent publication EP0114128A1, “3-Amino-2-oxo-azetidine derivatives containing in position 1 a nitrogen heterocyclic radical, process for their preparation, their use as therapeutical agents and intermediates for their preparation” (priority 1983, dated 1984)
